Measurements as given in PubChem BioAssay AID330 (DTP/NCI, 2004).
“And” between values parts separate entries of the source, which are not always exact repeats. Equal values may be shown once. Inconclusive results and toxic doses are left out. How the source made its calls: active means survival T/C of 150% or more; inactive means T/C below 125% in these data.

Tested on: P388 leukemia ip, CD2F1 mice, survival T/C
Assay: NCI In Vivo Anticancer Drug Screen. Data for tumor model P388 Leukemia (intraperitoneal) in CD2F1 (CDF1) mice
Conditions: endpoint: median survival time, higher = longer survival
How it was run: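 Mice carrying the transplanted tumor received test compound or vehicle. Survival was recorded in each group, and the value is the treated-group measurement divided by that of the vehicle-treated control group.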

[1] = dose: 100.0 mg/kg/injection, schedule: Q04DX002 (ip), vehicle: saline with Tween-80
[2] = dose: 200.0 mg/kg/injection, schedule: Q04DX002 (ip), vehicle: saline with Tween-80
[3] = dose: 50.0 mg/kg/injection, schedule: Q01DX009 (ip), vehicle: saline with Tween-80
[4] = dose: 100.0 mg/kg/injection, schedule: Q01DX009 (ip), vehicle: saline with Tween-80
[5] = dose: 60.0 mg/kg/injection, schedule: Q01DX005 (ip), vehicle: saline with Tween-80
[6] = dose: 120.0 mg/kg/injection, schedule: Q01DX005 (ip), vehicle: saline with Tween-80
[7] = dose: 240.0 mg/kg/injection, schedule: Q01DX005 (ip), vehicle: saline with Tween-80
[8] = dose: 200.0 mg/kg/injection, schedule: Q01DX009 (ip), vehicle: saline with Tween-80
[9] = dose: 50.0 mg/kg/injection, schedule: Q01DX005 (ip), vehicle: saline
[10] = dose: 100.0 mg/kg/injection, schedule: Q01DX005 (ip), vehicle: saline
[11] = dose: 50.0 mg/kg/injection, schedule: Q01DX005 (ip), vehicle: saline with Tween-80
[12] = dose: 100.0 mg/kg/injection, schedule: Q01DX005 (ip), vehicle: saline with Tween-80
[13] = dose: 200.0 mg/kg/injection, schedule: Q01DX005 (ip), vehicle: saline with Tween-80
[14] = dose: 400.0 mg/kg/injection, schedule: Q04DX002 (ip), vehicle: saline with Tween-80
[15] = dose: 25.0 mg/kg/injection, schedule: Q04DX003 (ip), vehicle: saline
[16] = dose: 50.0 mg/kg/injection, schedule: Q04DX003 (ip), vehicle: saline
[17] = dose: 12.5 mg/kg/injection, schedule: Q04DX003 (ip), vehicle: saline
[18] = dose: 50.0 mg/kg/injection, schedule: Q01DX005 (ip), vehicle: Klucel (hydroxypropylcellulose) (HPC)
[19] = dose: 100.0 mg/kg/injection, schedule: Q01DX005 (ip), vehicle: Klucel (hydroxypropylcellulose) (HPC)
[20] = dose: 200.0 mg/kg/injection, schedule: Q01DX005 (ip), vehicle: Klucel (hydroxypropylcellulose) (HPC)
[21] = dose: 200.0 mg/kg/injection, schedule: Q01DX005 (ip), vehicle: saline
[22] = dose: 25.0 mg/kg/injection, schedule: Q01DX005 (ip), vehicle: Klucel (hydroxypropylcellulose) (HPC)

Measured: T/C

Clc1nc2nc(Cl)c(Cl)n2c(Cl)c1Cl
inactive: [1] 105 % of control | [2] 117 % of control

COC(=O)C1(c2cc3c(cc2OC)N(C)C2CCCCC32)CCCCCc2c1[nH]c1ccccc21 (stereo unspecified)
inactive: dose: 12.5 mg/kg/injection, schedule: Q01DX001 (ip), vehicle: distilled water + Tween-80 106 % of control | dose: 25.0 mg/kg/injection, schedule: Q01DX001 (ip), vehicle: distilled water + Tween-80 100 % of control | dose: 50.0 mg/kg/injection, schedule: Q01DX001 (ip), vehicle: distilled water + Tween-80 104 % of control | dose: 100.0 mg/kg/injection, schedule: Q01DX001 (ip), vehicle: distilled water + Tween-80 100 % of control | dose: 200.0 mg/kg/injection, schedule: Q01DX001 (ip), vehicle: distilled water + Tween-80 97 % of control

CN(C)Cc1cc(CN(C)C)c(O)c(CN(C)C)c1
inactive: [3] 88 % of control | [4] 93 % of control

Cc1ccc(S(=O)(=O)C(Sc2ccccc2)=S=NC23CC4CC(CC(C4)C2)C3)cc1
inactive: dose: 50.0 mg/kg/injection, schedule: Q01DX009 (ip), vehicle: saline 100 % of control | dose: 100.0 mg/kg/injection, schedule: Q01DX009 (ip), vehicle: saline 108 % of control | dose: 200.0 mg/kg/injection, schedule: Q01DX009 (ip), vehicle: saline 97 % of control

CSC(=S)n1nc(-c2cccs2)c(N=Nc2ccc([N+](=O)[O-])cc2)c1C(F)(F)F
inactive: [5] 94 % of control | [6] 88 % of control | [7] 97 % of control

CC1C(c2ccccc2)OC2N1CN(C(C)(C)C)CC2(C)C (stereo unspecified)
inactive: [3] 100 % of control | [4] 104 % of control | [8] 105 % of control

O=C(O)CCCNC(=O)Cc1ccccc1
inactive: [9] 93 % of control | [10] 90 % of control

O=C(NC(Cc1ccccc1)C(=O)NC(Cc1c[nH]c2ccccc12)C(=O)O)OCc1ccccc1 (stereo unspecified)
inactive: [11] 90 % of control | [12] 98 % of control | [13] 91 % of control

Cc1cc(=O)[nH]c2c1ccc1ccccc12
inactive: [1] 95 % of control | [2] 93 % of control | [14] 99 % of control

CN(C)CCC[Si]1(C)c2ccccc2CCc2ccccc21
inactive: [15] 104 % of control | [16] 105 % of control | dose: 100.0 mg/kg/injection, schedule: Q04DX003 (ip), vehicle: saline 109 % of control

[Br][Sn]([Br])([CH2]c1ccccc1)[c]1ccccc1
inactive: dose: 1.56 mg/kg/injection, schedule: Q04DX003 (ip), vehicle: saline 101 % of control and 102 % of control | dose: 3.12 mg/kg/injection, schedule: Q04DX003 (ip), vehicle: saline 99 % of control and 102 % of control | dose: 6.25 mg/kg/injection, schedule: Q04DX003 (ip), vehicle: saline with Tween-80 118 % of control | dose: 6.25 mg/kg/injection, schedule: Q04DX003 (ip), vehicle: saline 105 % of control and 106 % of control | [17] 99 % of control and 104 % of control

S=c1sscc1-c1ccc2ccccc2c1
inactive: dose: 200.0 mg/kg/injection, schedule: Q04DX003 (ip), vehicle: saline with Tween-80 90 % of control | dose: 400.0 mg/kg/injection, schedule: Q04DX003 (ip), vehicle: saline with Tween-80 97 % of control

OC1=CC(=S)NC2CCCCC12 (stereo unspecified)
inactive: [18] 86 % of control | [19] 102 % of control | [20] 102 % of control

CCN1CCn2c(c(COC(=O)NC(C)C)c(COC(=O)NC(C)C)c2-c2ccc(Cl)c(Cl)c2)C1
inactive: dose: 6.25 mg/kg/injection, schedule: Q01DX009 (ip), vehicle: distilled water + Tween-80 116 % of control | dose: 12.5 mg/kg/injection, schedule: Q01DX009 (ip), vehicle: distilled water + Tween-80 122 % of control | dose: 18.8 mg/kg/injection, schedule: Q01DX009 (ip), vehicle: distilled water + Tween-80 97 % of control | dose: 25.0 mg/kg/injection, schedule: Q01DX009 (ip), vehicle: distilled water + Tween-80 116 % of control | dose: 37.5 mg/kg/injection, schedule: Q01DX009 (ip), vehicle: distilled water + Tween-80 114 % of control

Cc1cc(NC(=O)Nc2cc(Cl)ccc2C)no1
inactive: dose: 60.0 mg/kg/injection, schedule: Q01DX005 (ip), vehicle: Klucel (hydroxypropylcellulose) (HPC) 87 % of control | dose: 120.0 mg/kg/injection, schedule: Q01DX005 (ip), vehicle: Klucel (hydroxypropylcellulose) (HPC) 93 % of control | dose: 240.0 mg/kg/injection, schedule: Q01DX005 (ip), vehicle: Klucel (hydroxypropylcellulose) (HPC) 93 % of control

CCN(CC)OCC=C(C)CCC=C(C)C (mixture of isomers)
inactive: [1] 111 % of control | [2] 109 % of control | [14] 108 % of control

COc1cc(NC(=O)OCc2cccnc2)cc(OC)c1OC
inactive: [11] 98 % of control | [12] 98 % of control | [13] 93 % of control

O=C1CC2C(=O)N(Cc3ccccc3)C(=O)C2C(=O)N1 (stereo unspecified)
inactive: [11] 99 % of control | [12] 97 % of control | [13] 92 % of control

Cc1cn(C2CC(O)C(CNC(=O)CCl)O2)c(=O)[nH]c1=O (stereo unspecified)
inactive: [9] 105 % of control | [10] 98 % of control | [21] 109 % of control

Brc1ccc(N=C=C(c2ccccc2)c2ccccc2)cc1
inactive: [3] 95 % of control | [4] 100 % of control | [8] 104 % of control

COc1nc(NC2OC(COC(C)=O)C(OC(C)=O)C(OC(C)=O)C2OC(C)=O)c2ccoc2n1 (stereo unspecified)
inactive: [5] 100 % of control | [6] 101 % of control | [7] 98 % of control

O=[Se](=O)(O)O
inactive: dose: 1.88 mg/kg/injection, schedule: Q01DX005 (ip), vehicle: saline 103 % of control | dose: 3.75 mg/kg/injection, schedule: Q01DX005 (ip), vehicle: saline 109 % of control and 99 % of control | dose: 7.5 mg/kg/injection, schedule: Q01DX005 (ip), vehicle: saline 113 % of control and 101 % of control | dose: 15.0 mg/kg/injection, schedule: Q01DX005 (ip), vehicle: saline 86 % of control and 98 % of control

CCC1C2Cc3ccc(O)cc3C1(C)CCN2C (stereo unspecified)
inactive: dose: 12.5 mg/kg/injection, schedule: Q01DX005 (ip), vehicle: Klucel (hydroxypropylcellulose) (HPC) 100 % of control | [22] 99 % of control | [18] 102 % of control and 107 % of control

COC(=O)C1=CO[C@@H](OC2OC(CO)C(O)C(O)C2O)[C@H]2[C@@H]1C=C[C@@]2(O)CO (stereo partly specified)
inactive: dose: 6.25 mg/kg/injection, schedule: Q01DX009 (ip), vehicle: Klucel (hydroxypropylcellulose) (HPC) 100 % of control | dose: 12.5 mg/kg/injection, schedule: Q01DX009 (ip), vehicle: Klucel (hydroxypropylcellulose) (HPC) 88 % of control | dose: 25.0 mg/kg/injection, schedule: Q01DX009 (ip), vehicle: Klucel (hydroxypropylcellulose) (HPC) 100 % of control | dose: 50.0 mg/kg/injection, schedule: Q01DX009 (ip), vehicle: Klucel (hydroxypropylcellulose) (HPC) 99 % of control | dose: 100.0 mg/kg/injection, schedule: Q01DX009 (ip), vehicle: Klucel (hydroxypropylcellulose) (HPC) 107 % of control

Cc1ccc(S(=O)(=O)N=S(=O)(CCCl)CCCl)cc1
inactive: [17] 98 % of control | [15] 98 % of control | [16] 96 % of control

C[CH2][Sn]1([Cl])[O]CCNCC[O]1
inactive: [22] 103 % of control | [18] 103 % of control and 113 % of control | [19] 116 % of control | [20] 122 % of control

CC(C)(C)OC(=O)NC(CCCCN)C(=O)O (stereo unspecified)
inactive: [9] 103 % of control | [10] 100 % of control | [21] 100 % of control

NC(Cc1ccccc1)C(=O)OCN1C(=O)C2C3C=CC(C2C1=O)C1C(=O)N(COC(=O)C(N)Cc2ccccc2)C(=O)C31 (stereo unspecified)
inactive: dose: 25.0 mg/kg/injection, schedule: Q01DX009 (ip), vehicle: water 100 % of control | dose: 50.0 mg/kg/injection, schedule: Q01DX009 (ip), vehicle: water 104 % of control | dose: 100.0 mg/kg/injection, schedule: Q01DX009 (ip), vehicle: water 114 % of control | dose: 200.0 mg/kg/injection, schedule: Q01DX009 (ip), vehicle: water 124 % of control
